From patent US11566222B2, “γδ T cell expansion procedure” (KING'S COLLEGE LONDON, priority 2014, dated 2023)

What was measured:
Vγ9Vδ2 T-cells = test: Ex-vivo expansion of Vγ9Vδ2 T-cells from PBMC; type: cell-based, human
Procedure: To enrich these cells, peripheral blood mononuclear cells (PBMC) were activated with ZA and cultured in AB serum-containing RPMI 1640 medium, supplemented with IL-2/IL-15. Specifically, PBMC isolated from normal (healthy) donors (n=21 separate donors) and from patients with EOC (n=13 separate donors) were cultured with ZA (1 μg/ml day 1 only), IL-2 (100 U/ml) and IL-15 (10 ng/ml). Cytokines and medium were added daily.
Isolated PBMC cells were then reconstituted in GMP TexMACS Media (Miltenyi) at 3×10^6 cell/mL. To the reconstituted cells, 1 μg/mL Zoledronic Acid (Zometa, Novartis) was added as an activator, together with 100 U/mL IL-2 and 5 ng/mL TGF-β. The cells were incubated at 37° C. in air containing 5% carbon dioxide.
On day 3, cells were fed with 100 U/mL IL-2 and 5 ng/mL TGF-β. Thereafter, on days 4, 7, 9, 11, 13, 15, cells were counted by trypan exclusion using a hemocytometer. If the number of T-cells was less than 1×10^6 cells/mL, a further 100 U/mL IL-2 and 5 ng/mL TGF-β were added. If the number of T-cells was between 1×10^6 and 2×10^6 cells/mL, an equivalent volume of TexMACS medium was added together with 100 U/mL IL-2 and 5 ng/mL TGF-β. If the number of T-cells was greater than 2×10^6 […], double the volume of TexMACS media was added together with 100 U/mL IL-2 and 5 ng/mL TGF-β.
After 15 days, the cells were analyzed by flow cytometry with a pan γδ antibody to confirm the enrichment of γδ T-cells in these cultures.
The methodology of Example 1 above was repeated using a different basic medium, specifically RPMI+human AB serum. In particular, PBMC (3×10^6 cells/ml) were cultured in RPMI+10% human AB serum containing zoledronic acid (1 μg/ml)+IL-2 (100 U/ml; method 1) or zoledronic acid (1 μg/ml)+IL-2 (100 U/ml)+TGF-β (5 ng/ml; method 2). The percentage of γδ T-cells present in each culture was evaluated on the day of initiation of the cultures (day 1) and after a further 14 days (day 15) and the results are shown in FIG. 9B.

[1] = tested on: U937 tumor cells or KG-1 tumor cells; test: Cytotoxicity assay (luciferase) with cytarabine-pulsed tumor cells, 1:1 effector:target; type: cell-based; details: sub-lethal doses, 24 h pulse before T-cells
Procedure: Cytotoxicity assays were established in triplicate at a 1:1 effector:target ratio in 96 well plates containing either U937 tumor cells or KG-1 tumor cells. Where indicated, tumor cells were pulsed for 24 h with the indicated concentrations of cytarabine, prior to addition of γδ T-cells, produced either using the method of the invention (M2) or the method of the comparative example (M1) above. There were three donors for the M2 cells and two donors for the M1 cells. A control group received no cytarabine.
Residual tumor cell viability was measured after overnight co-culture with Vγ9Vδ2 T-cells by luciferase assay.

IL-15: cytokine supplement (10 ng/ml) in comparative expansion
yield of cells on addition of IL-15 (Vγ9Vδ2 T-cells; RPMI 1640 with AB serum, ZA + IL-2, IL-15 10 ng/ml): no significant difference

TGF-β
cell expansion on addition of TGF-β (Vγ9Vδ2 T-cells; RPMI + 10% human AB serum, ZA + IL-2, 5 ng/ml TGF-β, day 15): enhanced cell expansion | yield of Vγ9Vδ2 T-cells on addition of TGF-β (Vγ9Vδ2 T-cells; TexMACS medium, ZA + IL-2, 5 ng/mL TGF-β, 15 days): substantially enhanced yields

Nc1ccn([C@@H]2O[C@H](CO)[C@@H](O)[C@@H]2O)c(=O)n1 [cytarabine]
effect of cytarabine on anti-tumor activity of method 2 Vγ9Vδ2 T-cells [1]: potentiated the anti-tumor activity
